Data published in patent US8911717B2, “Polymalic acid-based multifunctional drug delivery system” (Cedars-Sinai Medical Center, priority 2003, dated 2014).

Columns and labels:
[1] = tested on: protein kinase CK2 α chain; experiment: Western blot of CK2 expression in cell lysates; type: cell-based, human; settings: U251MG glioma cells treated for 3 days; compared to untreated control or EPEI-treated control
Procedure: The protein kinase CK2 complex is a tetramer comprised of catalytic α, α′ subunits and regulatory […] subunits that form complexes such as α2β2, αα′β2 and α′2β2. To achieve downregulation of CK2, the antisense oligonucleotides against the CK2 catalytic subunit a were conjugated to PMLA. Morpholino™-NH2 antisense oligonucleotides to the protein kinase CK2 catalytical domain a chain purchased from Gene Tools (USA) were as follows:
Inhibition of CK2 expression in vitro was assessed in the cell lysates of cultured glioma cell line U251MG treated for 3 days with nanoconjugates containing Morpholino antisense oligonucleotides CK2a-1, CK2a-2 or CK2a-3.

[2] = tested on: fresh human RBCs; experiment: red blood cell (RBC) hemolysis assay (membrane disruptive activity); type: cell-based; settings: pH 5.85 or pH 5.5; 2.5 nmol/10^8 RBCs; 1 h at 37° C.; absorbance of supernatant at 541 nm
Procedure: The fresh human RBCs were isolated by centrifugation of whole human blood at 2000 g for 5 min. The RBCs were washed three times with cold 100 mM sodium phosphate buffer of the desired pH (pH 5.85 or pH 5.5). The final pellet was resuspended in the same buffer to give a solution with […] RBCs per 1 ml. The polymers were dissolved in 100 mM dibasic sodium phosphate buffer at the desired pH at a concentration of 10 mg/ml. The polymer concentration was 2.5 nmol/10^8 RBCs. Hemolysis in distilled water was used to produce 100% lysis. RBCs in buffer with no polymer was used as reference controls. The hemolysis assay was performed by adding the polymer solution to the suspended RBCs in 1 ml of the appropriate buffer. The RBCs were mixed by inverting the tube several times, and incubated for 1 h in a 37° C. water bath. After incubation, the RBCs were centrifuged for […] at 13,500×g to sediment intact cells and the lysis was determined by measuring the absorbance of the supernatants at 541 nm which reflects the amount of hemoglobin released by the RBCs. The relative increase 100(A-Ao)/Atotal in absorbance at 541 nm wavelength of the cell-free supernatant was measured as an indicator of membrane rupture. […]

Row | Substance | CK2 α chain expression, Western blot [1] | membrane disruptive activity (effect on RBC membranes) [2]
1 | CK2a-2: PMLA nanoconjugate containing Morpholino antisense oligonucleotide CK2a-2, SEQ ID NO: 4, CCTGCTTGGCACGGGTCCCGACAT (all phosphorodiamidate morpholino (PMO); amine-modified morpholino conjugated to polymalic acid nanoconjugate carrier, further chemistry not fully specified) | reduction | 
2 | CK2a-3: PMLA nanoconjugate containing Morpholino antisense oligonucleotide CK2a-3, SEQ ID NO: 5, CGGACAAAGCTGGACTTGATGTTT (all phosphorodiamidate morpholino (PMO); amine-modified morpholino conjugated to polymalic acid nanoconjugate carrier, further chemistry not fully specified) | reduction | 
3 | PMLA/L-valine/2-mercaptoethylamine/mPEG-NH2 conjugate [PMLA-PEG-Valine] |  | infer membrane destabilization
4 | PMLA/mAB OX-26/morpholino antisense oligonucleotide/L-valine/2-mercaptoethylamine/mPEG-NH2 conjugate [PMLA-PEG-Valine-AS-mAB] |  | infer membrane destabilization
5 | CK2a-1: PMLA nanoconjugate containing Morpholino antisense oligonucleotide CK2a-1, SEQ ID NO: 3, GATCTGGCAGTCACTGTGTTCAGAA (all phosphorodiamidate morpholino (PMO); amine-modified morpholino conjugated to polymalic acid nanoconjugate carrier, further chemistry not fully specified) | reduction | 
